# According to patent US11077036B2, “Lactam solubility” (Conopco, Inc., priority 2015, dated 2021):
# Assay: Lactam solubility in water or water + ethyl lactate (48 hours agitation, filtration, HPLC quantification)
# Assay type: physicochemical
# Details: for Mean Lactam Level in Solution: 48 hours agitation
# Method: The following example uses, without limitation, 4-(4-chlorophenyl)-5-methylene-pyrrol-2-one and ethyl lactate.
# Excess solid lactam (˜3 mg) was placed in a Whatman® Mini Uniprep sample vial, fitted with a 0.45 μm nylon filter. Water or water+ethyl lactate (500 μL) was added the mixture shaken and tapped briefly to initially disperse the solid and the mixture then agitated for 48 hours using a plate shaker fitted with a vial holder (see image below). After 48 hours, the solid was removed from the system by pressing down the plunger with integral filter on the vial (see image below). This removes the solid and provides filtered solution within the inner chamber which is then ready for analysis.
# The level of lactam dissolved in solution was quantified using HPLC analysis. Samples were analysed on an Agilent 1200® series HPLC fitted with a Thermo Hypersil® Gold C18 column (15×2.1×3 μm), isocratic elution with 60/40 methanol/water (+0.1% Formic Acid), 0.4 mL/min flow rate, using a DAD detector at 285 nm. 4-(4-chlorophenyl)-5-methylene-pyrrol-2-one has a retention time of ˜2.8 minutes.
# The absolute level of lactam in solution is measured and reported as an increase in solubility of lactam relative to water alone.
# [1] = 0 % ethyl lactate in water (water alone)
smiles,measurement,setting,value
C=C1NC(=O)C=C1c1ccc(Cl)cc1 [4-(4-chlorophenyl)-5-methylene-pyrrol-2-one],Solubility Increase vs water alone,[1],1.00
same,Mean Lactam Level in Solution,[1],5.7 ppm
same,Solubility Increase vs water alone,0.5 % ethyl lactate in water,1.21
same,Mean Lactam Level in Solution,0.5 % ethyl lactate in water,6.9 ppm
same,Solubility Increase vs water alone,1 % ethyl lactate in water,1.21
same,Mean Lactam Level in Solution,1 % ethyl lactate in water,6.9 ppm
same,Solubility Increase vs water alone,2 % ethyl lactate in water,1.99
same,Mean Lactam Level in Solution,2 % ethyl lactate in water,11.3 ppm
same,Solubility Increase vs water alone,5 % ethyl lactate in water,4.63
same,Mean Lactam Level in Solution,5 % ethyl lactate in water,26.4 ppm
same,Solubility Increase vs water alone,10 % ethyl lactate in water,10.57
same,Mean Lactam Level in Solution,10 % ethyl lactate in water,60.2 ppm
